# According to patent US6627732B1, “Glutathione derivatives and their dosage forms” (Teijin Limited, priority 1998, dated 2003):
# Experiments:
# [1] = Dialysis of fat emulsion in aqueous glycerin, content of glutathione derivative retained (Example 23); assay type: physicochemical; conditions: 2 mg/ml fat emulsion, dialysis 2 days at room temperature in 2.3 (w/v)% glycerin, 1.2 μm filter; uncorrected for volume increase
# Experimental: The glutathione derivative combined with a fat emulsion was dialyzed in an aqueous solution of glycerin to compare changes in the content of the glutathione derivative in the fat emulsion.
# Thereupon, the concentration of the glutathione derivative in the fat emulsion was adjusted to 2 mg/ml.
# (2) These fat emulsions (14 ml) were dialyzed in 1 liter of a 2.3 (w/v)% aqueous solution of glycerin. Dialysis was carried out at room temperature for 2 days with one change of the aqueous glycerin solution during the dialysis. All the fat emulsions after dialysis were about 15.6 ml. They were filtered by a 1.2 μm filter and the content of the glutathione derivative was measured.
# [2] = tested on: rabbit models of suppressed hematopoietic function by CP administration; test: Recovery of neutrophil counts in rabbit models of suppressed hematopoietic function by cyclophosphamide (Example 29); assay type: in vivo; conditions: CP rabbits; 20 mg/kg-body weight/day, days 3 to 7; Example 4 in fat emulsion, Comparative Example 1 in HPCD solution
# From the text: Regarding the effect of promoting the recovery of neutrophil counts in rabbit models of suppressed hematopoietic function by cyclophosphamide (hereinafter referred to as CP) administration, the pharmaceutical composition comprising the fat emulsion containing the glutathione derivative of Example 4 of the present invention and the pharmaceutical composition of the conventional technology of Comparative Example 1 were compared.
# (1) Animals used and the keeping condition: Male Japanese white rabbits, 17-week old, (Kbl:JW) purchased from Kitayama Labes Co., Ltd. were used. The animal feed (LRC4, manufactured by Oriental Yeast Co., Ltd.) and drinking water (well water treated with 0.4±0.2 ppm hypochlorous acid) were given ad libitum during the period of the experiment. The animals were each housed in a hanging-type rat cage (manufactured by Nippon Cage K.K.) and kept at a temperature of 24±2° C. and a humidity of 55±5%.
# (2) Creation of rabbit models of suppressed hematopoietic function by CP administration; CP (manufactured by Wako Pure Chemicals Industries, Ltd.) was intravenously administered at 60 mg/kg-body weight/day (dosage volume was 2 ml/kg-body weight) to rabbits described in (1) on day 1 and 2 of the experiment. […] Blood was also drawn before the administration on day 1 of the experiment, and the value determined for the blood was used as the pre-administration value. […]
# [3] = Intravenous administration of high dosages, local reaction; assay type: in vivo; conditions: high dosages administered intravenously
# rabbit liver esterase = test: Decomposition of glutathione derivatives by rabbit liver esterase (physiological stability); assay type: in vitro ADME; conditions: BSA/D-PBS pH 7.4, 196-244 μg/ml
# Experimental: (1) Bovine serum albumin (hereinafter referred to as BSA), Dulbecco's phosphate buffered saline (hereinafter referred to as D-PBS), swine liver esterase, and rabbit liver esterase were purchased from Sigma, 6-week old male SD rats were purchased from Nippon SLC, and 12-week old or older male Japanese white rabbits were purchased from Ichikawaya. On the day of the incubation experiment described below, blood was drawn from the animals in the presence of heparin, and plasma was separated therefrom for use. Human plasma was obtained from normal healthy males after obtaining their consent.
# (2) The glutathione derivatives described in the Examples and Comparative Examples of the present invention were incubated for a fixed time in an enzyme solution having the following composition. Acetonitrile was added to the reaction mixture to inactivate the enzyme thereby to stop the reaction. The concentration of the glutathione derivatives in the deproteinized supernatant was measured by HPLC. For each time point of the esterase enzyme experiment, the mean values from two measurement or more were determined, and for the rats and rabbits the mean values of plasma samples from three individuals were determined. For some of the experiment data, changes with time of percentages relative to initial concentration of the glutathione derivative are shown in FIGS. 2 to 4.
# Swine liver esterase and rabbit liver esterase experiment
# 30 mg-BSA/ml-D-PBS (pH 7.4): 36 to 45 parts
# Swine or rabbit liver esterase/D-PBS: 4-5 parts
# 10 mg-glutathione derivative/ml-ethanol: one part (the final concentration in the reaction mixture is 196-244 μg/ml)
# TNFα = test: Plasma level of TNFα in normal healthy rats (ELISA); assay type: in vivo, rat; conditions: fat emulsion 20 mg/kg-body weight/day, days 3, 5 and 7
# From the text: (§1) , plasma obtained form the EDTA-2K-treated blood on days 3, 5, and 7 of the experiment was used to determine plasma levels of interleukin 1β (hereinafter referred to as IL-1β) and tumor necrosis factor (hereinafter referred to as TNFα). For the determination, the rat IL-1β-ELISA system (manufactured by Amersham Pharmacia Biotek Co., Ltd.), the rat TNFα-ELISA system (manufactured by Amersham Pharmacia Biotek Co., Ltd.), and the BioRad microplate reader (MODEL550, Nippon BioRad laboratories, Co., Ltd.).
# IL-1β = test: Plasma level of IL-1β in normal healthy rats (ELISA); assay type: in vivo, rat; conditions: fat emulsion 20 mg/kg-body weight/day, days 3, 5 and 7
# From the text: as §1
# [4] = tested on: rat models of suppressed hematopoietic function by 5-FU administration; test: Ratio of segmented neutrophils in rat models of suppressed hematopoietic function by 5-FU (Example 27); assay type: in vivo; conditions: 5-FU rats; 30 mg/kg-body weight/day with fat emulsion
# Experimental: (1) The animals used are the same as in Example 26. The keeping condition was a temperature of 23±2° C. and a humidity of 55±15%.
# (2) The creation of the 5-FU administration model, the administration of test substances, and the blood collection schedule were carried out in a similar manner to Example 26. Hematological tests were carried out using the Toa multi-channel automatic cell counter K-4500 or Toa Sysmex CC-180A automatic cell counter, differential counts of white blood cells were carried out by May-Giemsa stain followed by microscopic examination, reticulocytes were counted by the Brecher method.
# (3) Using the same schedule as in Example 26, the negative control group that only received the fat emulsion after 5-FU administration, the group that received the glutathione derivative of Example 4 at 30 mg/kg-body weight/day as a test substance together with the fat emulsion, the group that similarly received the glutathione derivative of Example 1 at 10 or 30 mg/kg-body weight/day, and the group that received the glutathione derivative of Example 7 at 30 or 60 mg/kg-body weight/day were studied.
SMILES,"Content of the glutathione derivative in the fat emulsion after dialysis, of the initial feed [1] [%]",Neutrophil counts compared to the negative control group [2],Local reaction at the site of administration [3],Decomposition rate constant by rabbit liver esterase (rabbit liver esterase),Plasma level of TNFα relative to the negative control group (TNFα),Plasma level of IL-1β relative to the negative control group (IL-1β),Recovery of segmented neutrophil counts relative to the negative control [4]
"CCOC(=O)[C@@H](N)CCC(=O)N[C@@H](CSCc1ccccc1)C(=O)N[C@@H](C(=O)OCC)c1ccccc1.Cl [Comparative Example 1, Glu(Cys(Bzl)-D-Phg-O(Et))-O(Et)hydrochloride, reference compound]",14.0,no changes were observed,can cause inflammation at the site of administration,,,,
"CCCCCCCCOC(=O)[C@H](NC(=O)[C@H](CSCc1ccccc1)NC(=O)CC[C@H](N)C(=O)OCC)c1ccccc1.Cl [Comparative Example 2, Glu(Cys(Bzl)-D-Phg-O(Octyl))-O(Et)hydrochloride, reference compound]",,,,267 10^−4/unit/min,,,
"CCCCCCCCCCCCCCCCOC(=O)[C@@H](N)CCC(=O)N[C@@H](CSCc1ccccc1)C(=O)N[C@@H](C(=O)OCC)c1ccccc1.Cl [Example 4, Glu(Cys(Bzl)-D-Phg-OEt)-O(Hexadecyl)hydrochloride]",,statistically significant increase in neutrophil counts,,0.836 10^−4/unit/min,No increases,No increases,tendency of promoting the recovery of segmented neutrophil counts
